Data taken from the NIST ThermoML archive (doi:10.1021/acs.jced.8b00058).
Where “and” joins values, the source holds several entries; their conditions need not be identical. Identical values can stand only once.

What was measured:
[1] = 100 kPa, Liquid, Frequency=3 MHz, Single path-length method
[2] = mn = molality of the nth substance listed, in mol/kg; conditions: 100 kPa, Liquid; for speed of sound: Frequency=3 MHz, Single path-length method; for mass density: Vibrating tube method

O [water]
[1]
Conditions	speed of sound [m/s]
293.15 K	1481.1
298.15 K	1495.8
308.15 K	1519.1

OCCO [1,2-ethanediol] + O
[2]
Conditions	mass density, m1 = 0.09889 [kg/m3]	mass density, m1 = 0.1989 [kg/m3]	mass density, m1 = 0.2997 [kg/m3]	mass density, m1 = 0.3948 [kg/m3]	mass density, m1 = 0.5016 [kg/m3]	speed of sound, m1 = 0.09889 [m/s]	speed of sound, m1 = 0.1989 [m/s]	speed of sound, m1 = 0.2997 [m/s]	speed of sound, m1 = 0.3948 [m/s]	speed of sound, m1 = 0.5016 [m/s]
293.15 K	999.059	999.884	1000.68	1001.4	1002.2	1485.5	1488.3	1491.2	1493.9	1496.8
298.15 K	997.877	998.688	999.473	1000.18	1000.96	1498.9	1501.7	1504.3	1506.6	1509.1
303.15 K	996.471	997.262	998.033	998.733	999.48	1511.1	1513.8	1516.2	1518.7	1521.2
308.15 K	994.84	995.613	996.362	997.038	997.764	1521.8	1524	1526.2	1528.3	1530.3

OCCOCCOCCO [triethylene glycol] + O
[2]
Conditions	mass density, m1 = 0.0965 [kg/m3]	mass density, m1 = 0.2002 [kg/m3]	mass density, m1 = 0.292 [kg/m3]	mass density, m1 = 0.3986 [kg/m3]	mass density, m1 = 0.4988 [kg/m3]	speed of sound, m1 = 0.0965 [m/s]	speed of sound, m1 = 0.2002 [m/s]	speed of sound, m1 = 0.292 [m/s]	speed of sound, m1 = 0.3986 [m/s]	speed of sound, m1 = 0.4988 [m/s]
293.15 K	1000.31	1002.46	1004.29	1006.36	1008.22	1489.9	1498	1504.8	1513.1	1520.5
298.15 K	999.126	1001.27	1003.11	1005.14	1006.99	1503.5	1511	1517.6	1525.4	1532.2
303.15 K	997.728	999.858	1001.67	1003.69	1005.54	1514.8	1521.8	1528	1535.1	1541.7
308.15 K	996.095	998.216	1000.01	1002.02	1003.85	1525.1	1531.3	1536.9	1543.3	1549.4

OCCOCCO [diethylene glycol] + O
[2]
Conditions	mass density, m1 = 0.09849 [kg/m3]	mass density, m1 = 0.1974 [kg/m3]	mass density, m1 = 0.295 [kg/m3]	mass density, m1 = 0.4101 [kg/m3]	mass density, m1 = 0.5006 [kg/m3]	speed of sound, m1 = 0.09849 [m/s]	speed of sound, m1 = 0.1974 [m/s]	speed of sound, m1 = 0.295 [m/s]	speed of sound, m1 = 0.4101 [m/s]	speed of sound, m1 = 0.5006 [m/s]
293.15 K	999.647	1001.03	1002.36	1003.86	1004.99	1487.7	1493.1	1498.1	1504.1	1508.3
298.15 K	998.458	999.78	1001.03	1002.49	1003.59	1501.2	1506	1510.8	1516.2	1520.3
303.15 K	997.071	998.395	999.643	1001.05	1002.15	1513.1	1517.6	1522	1526.9	1530.6
308.15 K	995.44	996.778	998.046	999.471	1000.53	1523.5	1527.5	1531.5	1536.1	1539.6

Nc1ccccc1 [aniline] + O
[2]
Conditions	mass density, 293.15 K	mass density, 298.15 K	mass density, 303.15 K	mass density, 308.15 K	speed of sound, 293.15 K [m/s]	speed of sound, 298.15 K [m/s]	speed of sound, 303.15 K [m/s]	speed of sound, 308.15 K
m1 = 0.1	998.568 kg/m3 and 998.57 kg/m3	997.42 kg/m3 and 997.421 kg/m3	995.98 kg/m3 and 995.983 kg/m3	994.35 kg/m3 and 994.351 kg/m3	1483.3	1497.2	1509.5	1520.5 m/s
m1 = 0.2	998.97 kg/m3 and 998.972 kg/m3	997.81 kg/m3 and 997.813 kg/m3	996.33 kg/m3 and 996.326 kg/m3	994.68 kg/m3 and 994.684 kg/m3	1485	1498.7	1510.8	1521.9 m/s and 1520.5 m/s
m1 = 0.3	999.36 kg/m3 and 999.363 kg/m3	998.21 kg/m3 and 998.208 kg/m3	996.705 kg/m3 and 996.71 kg/m3	995.035 kg/m3 and 995.04 kg/m3	1486.8	1500	1512.1	1521.9 m/s and 1523.3 m/s
m1 = 0.4	999.783 kg/m3 and 999.78 kg/m3	998.592 kg/m3 and 998.59 kg/m3	997.079 kg/m3 and 997.08 kg/m3	995.385 kg/m3 and 995.39 kg/m3	1488.6	1502	1513.5	1523.6 m/s and 1524.7 m/s
